The source made the active and inactive calls.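 The calls were made as follows: active = clearly stronger inhibition of phosphomevalonate kinase than of the coupling enzymes alone in a parallel counterscreen; inactive = the rest.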
Columns and labels:
[1] = molecular target: phosphomevalonate kinase (Streptococcus pneumoniae D39); assay: S. pneumoniae PMK inhibitor potency, dose response, biochemical, mevalonate pathway, coupling enzyme counter-screen (AID 549); conditions: PK/LDH coupled NADH absorbance 340 nm
[2] = as above; conditions: PK/LDH coupled NADH absorbance 340 nm, measured here: coupling enzymes counter-screen (hexokinase)

Row | Structure (SMILES) | IC50 [1] | IC50 [2] [µM] | outcome [1]
1 | CCOC(=O)c1cc2c(=O)n3cccc(C)c3nc2n(CCCOC)c1=NC(=O)c1cccnc1 | inactive | 13.6 | –
2 | CCOC(=O)C1=C(C)NC(=O)NC1c1c(C)nn(-c2ccccc2)c1Cl (stereo not given) | inactive | 3.54 | –
3 | COc1cccc(OC)c1-c1nn2c(-c3cc(-c4ccccc4)n[nH]3)nnc2s1 | inactive | 42.7 | –
4 | CCOC(=O)N1C(=O)c2cc(OC)ccc2S1(=O)=O | inactive | 18.6 | –
5 | O=c1c2ccccc2[se]n1-c1ccccc1 | inactive | 73.1 | –
6 | C=CCn1c(NCc2ccccc2)nc2ccccc21 | – | – | inactive
7 | COc1ccc(NC(=O)c2ccco2)cc1NC(=O)c1ccc(C)cc1 | – | – | inactive
8 | O=C(NCc1cccs1)C1CCCN(c2nc3ccccc3o2)C1 (stereo not given) | – | – | inactive
9 | COc1ccc2[nH]cc(C(=O)CN3CCCC(C)C3)c2c1 (stereo not given) | – | – | inactive
10 | CCOCCCNC(=O)C1CCN(S(=O)(=O)N(CC(C)C)CC(C)C)CC1 | – | – | inactive
11 | CCCN1CCN(CCCNC(=O)Cn2nc(-c3ccccc3)ccc2=O)CC1 | – | – | inactive
12 | CC(C)C(C(=O)NCC1CCCO1)N(Cc1ccco1)C(=O)CNS(=O)(=O)c1ccc(F)cc1 (stereo not given) | – | – | inactive
13 | CN1C(=O)OC2(C)CCc3ccccc3C12C (stereo not given) | – | – | inactive
14 | O=C(Cc1coc(-c2ccc(F)cc2)n1)N1CCOCC1 | – | – | inactive
15 | Cc1nc(NC(=O)c2ccco2)sc1C(=O)Nc1ccc(Br)cc1 | – | – | inactive
16 | Cn1c(=O)c2c(nc(N3CCOCC3)n2C)n(C)c1=O | – | – | inactive
17 | CC(Sc1ncc(C#N)c(N)n1)C(=O)Nc1ccccc1 (stereo not given) | – | – | inactive
18 | Cc1cccc2cc(CN(CCN3CCCC3)C(=O)NC3CCCCC3)c(=O)[nH]c12 | – | – | inactive
19 | O=C(CSc1cc(Cl)ccc1Cl)NCC1CCCO1 (stereo not given) | – | – | inactive
20 | COc1ccc(-c2coc3c(CN4CCCCC4)c(O)c(CN4CCCCC4)c(O)c3c2=O)cc1 | – | – | inactive
